Results reported in patent US7292944B2, “Establishment of biological cut-off values for predicting resistance to therapy” (priority 2000, dated 2007).

Test system: HIV
Experiment: Antivirogram phenotypic drug susceptibility of untreated patient samples relative to laboratory wild type standard virus
Assay type: cell-based
Conditions: for effect of the change in cut-off value on the decision concerning resistance of the samples: new versus old cut-off value (FIG. 4, FIG. 5)
From the text: In one embodiment, the biological cut-off values may be used in concert with direct phenotype assays, for example, Antivirogram™ (Virco, Inc.; WO 97/27480, U.S. Pat. No. 6,221,578 incorporated herein by reference). This assay is a phenotypic resistance assay that measures, in controlled laboratory conditions, the level of resistance of the HIV derived from an individual patient to each of the anti-HIV therapies currently available. The resistant ‘behavior’ of the virus may be the combined result of the effects of many different mutations and the complex interactions between them, including genetic changes that have not even been identified yet. In other words, it is a direct measure of resistance.
The test provides a quantitative measure of viral resistance to all the available drugs. This is expressed in terms of the IC50. This is then compared to the IC50 for fully sensitive, non-mutated ‘wild-type’ virus. The resistance of the sampled virus to each therapy is then expressed in terms of a fold-change in IC50 compared to wild type. The report enables physicians to identify the therapy(s) that are no longer active and helps in the selection of the optimal combination of drugs for the individual patient.
Drug susceptibility of approximately 1000 geographically diverse untreated patient samples was determined for all currently approved antiretrovirals using the Antivirogram™ assay. […] The fold change in sensitivity of the samples to a drug is also termed the fold resistance of the samples to the drug. The 2×SD value for each drug was used as the cut-off between sensitive (within normal susceptibile range) and resistant (above normal susceptible range). […] FIG. 1 represents an example of such an analysis for a single antiviral drug. These varied between 3-4.5 fold for the nucleosides, 6-10 fold for the NNRTIs and 2.5-4 fold for the PIs.

Compound	effect of the change in cut-off value on the decision concerning resistance of the samples	biological cut-off value (2×SD of fold change in sensitivity / fold resistance) (approximately 1000 untreated patient samples, new cut-off between sensitive and resistant, old cut-off was 4 fold)
Cc1cn([C@H]2C=C[C@@H](CO)O2)c(=O)[nH]c1=O [d4T]	doubling of the number of resistant sample	
CC(C)Nc1cccnc1N1CCN(C(=O)c2cc3cc(NS(C)(=O)=O)ccc3[nH]2)CC1 [delavirdine]	did not actually affect the decision of many samples	10 fold
